These results are taken from patent US7425551B2, “Malonamide derivatives” (Hoffmann-La Roche Inc., priority 2006, dated 2008).

Broadly, the IC50 is the concentration that gives 50% inhibition. The melting point is the temperature, or range, at which the solid turns liquid.

Several values for one entry are separate records, joined by “and”; a condition that tells them apart may be missing. Identical values can stand only once.

One data set has as its target T1, γ-secretase (Homo sapiens, UniProt P49768).
T1 construct: uses a HEK293 membrane fraction as a source of γ-secretase; endogenous in cells; host or cells: HEK293 (microsomal membrane fraction, solubilised in 0.25% CHAPSO)
Put plainly: in vitro assay of γ-secretase activity (HEK293 membrane fraction, recombinant APP substrate, Abeta ELISA). To be noted: γ-secretase inhibition; HEK293 membrane fraction solubilized in 0.25% CHAPSO, recombinant human APP C-terminal 100 amino acids substrate, Abeta detected by ELISA. In kind it is biochemical. In a few lines: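 The microsomal fraction of HEK293 cells was solubilized in 0.25% CHAPSO and incubated with a His-tagged C-terminal 100-residue human APP fragment expressed in E. coli. Abeta peptides produced by cleavage were quantified by specific ELISA.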
(An ELISA detects its analyte on a solid surface through an enzyme-linked reagent.)

`C[C@H](OC(=O)NCCC(F)(F)C(F)(F)F)C(=O)N[C@@H]1C(=O)N(CCO)c2ccccc2-c2ccccc21` [Example 38, (3,3,4,4,4-Pentafluoro-butyl)-carbamic acid (S)-1-[(S)-5-(2-hydroxy-ethyl)-6-oxo-6,7-dihydro-5H-dibenzo[b,d]azepin-7-ylcarbamoyl]-ethyl ester]: the melting point was in the range of 181 to 184 °C. Moreover, the IC50 at γ-secretase came out at 12 nM.

For the molecule `CC(O)(C(=O)NCCC(F)(F)F)C(=O)N[C@@H]1C(=O)N(CCO)c2ccccc2-c2ccccc21` (stereo partly drawn) [Example 64, 2-Hydroxy-N—[(S)-5-(2-hydroxy-ethyl)-6-oxo-6,7-dihydro-5H-dibenzo[b,d]azepin-7-yl]-2-methyl-N′-(3,3,3-trifluoro-propyl)-malonamide], the melting point was 61 to 69 °C and 59 to 62 °C and 64 to 71 °C. Also, the IC50 on γ-secretase was 10 nM.

In the case of `CCOCCN1C(=O)[C@@H](NC(=O)C(C)(C)C(=O)NCC(F)(F)C(F)(F)F)c2ccccc2-c2ccccc21` [Example 71, N—[(S)-5-(2-Ethoxy-ethyl)-6-oxo-6,7-dihydro-5H-dibenzo[b,d]azepin-7-yl]-2,2-dimethyl-N′-(2,2,3,3,3-pentafluoro-propyl)-malonamide], the IC50 on γ-secretase is 6 nM.

As for `CC(C)(C(=O)NCC(F)(F)C(F)(F)F)C(=O)N[C@@H]1C(=O)N(CC(O)C(F)(F)F)c2ccccc2-c2ccccc21` (stereo partly drawn) [Example 72, 2,2-Dimethyl-N—[(S)-6-oxo-5-(3,3,3-trifluoro-2-hydroxy-propyl)-6,7-dihydro-5H-dibenzo[b,d]azepin-7-yl]-N′-(2,2,3,3,3-pentafluoro-propyl)-malonamide], at γ-secretase, the IC50 is 1 nM.
